Values of other authors in patent US10760135B2, “Methods for predicting pancreatic cancer treatment response” (priority 2016, dated 2020).
Where a name gives a salt, the structure may show the parent alone.

Tested on: advanced PDAC
Conditions: first-line treatment, patients with advanced PDAC

Nc1ccn([C@@H]2O[C@H](CO)[C@@H](O)C2(F)F)c(=O)n1 [Gemcitabine, 1-(2′-Deoxy-2′,2′-difluoro-[beta]-D-ribofuranosyl)-4-aminopyrimidin-2-one hydrochloride]
5-year survival rate: 2%
